Among the data in the supplement of paper PMC11061612 are Bliss excess values, retold here.

Holding throughout (assay): Bliss excess, mean over the matrix (fraction); higher = more synergy
The subject of assay [1] is MOLT-13 (T-Lymphoblastic Leukemia). The method in brief:
(§1)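 Cell lines grown in DMEM/F12 or RPMI with 10% FBS were plated in 1536-well plates and held 24 hours at 37°C, 5% CO2 before 72 hours of exposure to two-drug dose matrices, with DMSO typically at 0.2%. CellTiter-Glo 2.0 luminescence gave viability, which was converted to inhibition. Vehicle wells were set to 0 and blank wells to 1. Combination Emax is the second-highest inhibition in the matrix, and Bliss excess is the observed combination effect minus the expected EA + EB − EA·EB, where EA and EB are the single-agent effects.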

The next assay concerns KALS-1 (Glioblastoma). The essentials:
as §1

Assay [2] concerns SKG-IIIa (Cervical Carcinoma). The essentials: as §1
The subject of assay [3] is C-33-A (Cervical Carcinoma). The essentials:
as §1

Assay [4] has as its system TUR (Acute Myeloid Leukemia). The essentials: as §1
Assay [5] has as its system PA-TU-8988T (Pancreatic Carcinoma). The method in brief:
as §1

The subject of assay [6] is MDA-MB-415 (Breast Carcinoma). The essentials: as §1
For assay [7], the system named is SNU-C2B (Colorectal Carcinoma). The method in brief: as §1
A further assay has as its system T47D (Breast Carcinoma). The method in brief: as §1
The test system of assay [8] is COR-L88 (Small Cell Lung Carcinoma). The essentials: as §1
The test system of assay [9] is HT-1080 (Other Solid Carcinomas). The method in brief: as §1
Assay [10] has as its system SCC-4 (Oral Cavity Carcinoma). The essentials: as §1
Assay [11] relates to P30-OHK (B-Lymphoblastic Leukemia). The essentials:
as §1

Assay [12] deals with NCI-H1963 (Small Cell Lung Carcinoma). The method in brief: as §1
Another assay concerns SK-N-SH (Neuroblastoma). The method in brief: as §1
Assay [13] concerns LCLC-103H (Non-Small Cell Lung Carcinoma). The essentials:
as §1

In assay [14] the test system is BHT-101 (Thyroid Gland Carcinoma). The essentials:
as §1

The subject of assay [15] is CPC-N (Small Cell Lung Carcinoma). The essentials: as §1
In a further assay the test system is WM35 (Melanoma). The essentials:
as §1

Assay [16] deals with MOLP-8 (Plasma Cell Myeloma). The essentials: as §1

Take `CC(=O)c1c(C)c2cnc(Nc3ccc(N4CCNCC4)cn3)nc2n(C2CCCC2)c1=O` [Palbociclib] + Cn1cnc2c(F)c(Nc3ccc(Br)cc3Cl)c(C(=O)NOCCO)cc21 [Selumetinib] (first compound max 10 µM, 7x7, partner max 10 µM): the Bliss excess in [1] was 0.193; with KALS-1 (Glioblastoma), -0.0353; in assay [2] it was -0.0394; in assay [3] it was 0.0164; in [4] it was -0.0069; in assay [5], 0.0449. Besides, the Bliss excess in assay [6] was -0.0588; in assay [7], 0.0282; with T47D (Breast Carcinoma), -0.0328; in [8], -0.026; in [9] it was -0.0519; in assay [10], 0.0091. Also, the Bliss excess in assay [11] was -0.0089; in [12], 0.005; in the assay on SK-N-SH (Neuroblastoma) it was -0.0238; in assay [13] it was 0.0012; in assay [14] it was -0.0073; in assay [15] it was -0.0271. In addition, the Bliss excess is -0.0282 with WM35 (Melanoma) and 0.0926 in [16].

For the compound `COc1cccc(OCCCN)c1-c1cc(Nc2cnc(C#N)cn2)n[nH]1` [Prexasertib] + C=CCn1c(=O)c2cnc(Nc3ccc(N4CCN(C)CC4)cc3)nc2n1-c1cccc(C(C)(C)O)n1 [AZD1775] (first compound max 1 µM, partner max 1 µM), the Bliss excess is 0.0981 in assay [1]; -0.0436 in the assay with KALS-1 (Glioblastoma); -0.006 in assay [2]; 0.0983 in assay [3]; 0.105 in [4]; 0.227 in [5]. In addition, the Bliss excess in [6] was 0.0729; in assay [7], -0.0336; in the assay with T47D (Breast Carcinoma), 0.085; in assay [8] it was 0.0538; in [9] it was 0.0643; in [10] it was -0.0358. The Bliss excess in assay [11] was 0.0398; in assay [12] it was 0.068; in the assay on SK-N-SH (Neuroblastoma), 0.0025; in [13], 0.0284; in [14], 0.136; in assay [15], 0.0431. The Bliss excess in the assay with WM35 (Melanoma) was 0.0668; in assay [16] it was 0.0398.

Regarding `COc1cccc(OCCCN)c1-c1cc(Nc2cnc(C#N)cn2)n[nH]1` [Prexasertib] + CCc1c2c(nc3ccc(O)cc13)-c1cc3c(c(=O)n1C2)COC(=O)[C@]3(O)CC [SN-38] (first compound max 1 µM, 7x7, partner max 0.3 µM), the Bliss excess in [1] is -0.0112; in the assay on KALS-1 (Glioblastoma), 0.0399; in assay [2], 0.0683; in assay [3] it was 0.0583; in assay [4], 0.0107; in assay [5] it was 0.167. The Bliss excess in assay [6] is 0.106; in [7], -0.0388; in the assay on T47D (Breast Carcinoma), -0.0399; in assay [8], -0.0204; in assay [9], -0.0274; in assay [10], 0.0021. In addition, the Bliss excess in [11] is -0.0164; in [12], 0.0138; in the assay on SK-N-SH (Neuroblastoma), -0.0778; in [13], 0.081; in assay [14] it was 0.0077; in [15] it was 0.0633. The Bliss excess was -0.0582 in the assay with WM35 (Melanoma) and -0.082 in assay [16].

As to `COc1cccc(OCCCN)c1-c1cc(Nc2cnc(C#N)cn2)n[nH]1` [Prexasertib] + CN(C)CCCOc1ccc(-c2ccc3ncc4c(c3c2)n(C2CCOCC2)c(=O)n4C)cn1 [AZD0156] (first compound max 1 µM, 7x7, partner max 1 µM), the Bliss excess was 0.0118 in assay [1]; -0.0669 in the assay with KALS-1 (Glioblastoma); 0.0159 in assay [2]; -0.0158 in [3]; 0.013 in assay [4]; 0.0179 in [5]. For the same compound, the Bliss excess in assay [6] was -0.0099; in assay [7], -0.0133; in the assay on T47D (Breast Carcinoma), -0.0302; in [8] it was -0.0137; in assay [9], 0.0241; in [10] it was -0.0323. For the same compound, the Bliss excess was -0.045 in assay [11]; -0.0253 in assay [12]; -0.0496 in the assay with SK-N-SH (Neuroblastoma); -0.0391 in assay [13]; 0.0275 in [14]; 0.0081 in [15]. In addition, the figures for the Bliss excess (in the assay with WM35 (Melanoma); in assay [16]) were 0.0756 and -0.0203, respectively.

Take `COc1cccc(OCCCN)c1-c1cc(Nc2cnc(C#N)cn2)n[nH]1` [Prexasertib] + C[C@@H]1COCCN1C2=NC(=NC(=C2)C3(CC3)[S@](=N)(=O)C)C4=C5C=CNC5=NC=C4 [AZD6738] (first compound max 1 µM, 7x7, partner max 10 µM): the Bliss excess was 0.002 in [1]; -0.0557 in the assay with KALS-1 (Glioblastoma); 0.0363 in [2]; 0.0091 in assay [3]; 0.0298 in [4]; 0.0224 in assay [5]. In addition, the Bliss excess in assay [6] was -0.0055; in assay [7] it was -0.0274; in the assay with T47D (Breast Carcinoma), 0.0003; in assay [8], -0.0483; in assay [9], -0.0089; in assay [10], -0.0323. For the same compound, the Bliss excess is -0.0333 in assay [11]; -0.0231 in assay [12]; -0.0425 in the assay with SK-N-SH (Neuroblastoma); 0.0242 in assay [13]; 0.0322 in [14]; -0.013 in assay [15]. Besides, the Bliss excess was -0.026 with WM35 (Melanoma) and -0.0366 in assay [16].

Turning to `COc1cccc(OCCCN)c1-c1cc(Nc2cnc(C#N)cn2)n[nH]1` [Prexasertib] + Cc1cc2ncnn2cc1Nc1ncc2c(n1)n(C1CCOCC1)c(=O)n2C [AZD7648] (first compound max 1 µM, 7x7, partner max 10 µM), the Bliss excess in [1] was 0.004; with KALS-1 (Glioblastoma) it was -0.0363; in assay [2], 0.0223; in assay [3], -0.0283; in assay [4] it was -0.0005; in assay [5], 0.0389. The Bliss excess in [6] was -0.0331; in [7] it was -0.0356; with T47D (Breast Carcinoma), -0.0055; in assay [8], -0.0628; in [9], 0.0234; in assay [10] it was -0.0267. In addition, the Bliss excess in assay [11] is -0.0301; in assay [12], -0.0075; with SK-N-SH (Neuroblastoma) it was -0.0138; in assay [13] it was -0.0791; in assay [14] it was 0.0399; in assay [15] it was -0.0459. Further, the results for the Bliss excess (with WM35 (Melanoma); in assay [16]) were 0.0429 and -0.013, respectively.

As to `COc1cccc(OCCCN)c1-c1cc(Nc2cnc(C#N)cn2)n[nH]1` [Prexasertib] + O=C(c1cc(Cc2n[nH]c(=O)c3ccccc23)ccc1F)N1CCN(C(=O)C2CC2)CC1 [Olaparib] (first compound max 1 µM, 7x7, partner max 10 µM), the Bliss excess in assay [1] was 0.0013; in the assay with KALS-1 (Glioblastoma), -0.115; in assay [2], -0.0274; in [3], -0.0329; in assay [4] it was -0.0181; in [5], -0.0057. Besides, the Bliss excess is 0.0074 in assay [6]; -0.0414 in assay [7]; -0.0093 with T47D (Breast Carcinoma); -0.157 in [8]; 0.0164 in [9]; -0.109 in [10]. Also, the Bliss excess is -0.0074 in [11]; -0.0327 in [12]; -0.0217 in the assay with SK-N-SH (Neuroblastoma); -0.0572 in [13]; -0.0528 in [14]; -0.0458 in [15]. For the same compound, the results for the Bliss excess (in the assay with WM35 (Melanoma); in assay [16]) were -0.0377 and -0.0802, respectively.
